Data as given in ChEMBL document CHEMBL1201862, “PubChem BioAssay data set” (2004).
Activity calls are given as the source filed them.

Tests used:
Estrogen receptor beta = Estrogen receptor beta (Homo sapiens, UniProt Q92731);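 note: recombinant ER-beta bound to coactivator SRC1 peptide in presence of estradiol agonist; inhibitors block coactivator peptide binding and lower the FRET signal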
[1] = HEK-293T viability loss after treatment – luminescence, T-cell screen hits, cytotoxicity control for TCR NF-kB inhibitor project, dose response (AID 489026); type: functional, cell-based;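 note: cells exposed to compound about 14 hours before the viability readout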
[2] = Luminescence-based dose response cell-based high throughput screening assay for cytotoxic compounds using the IEC-6 intestinal epithelial cell line. [Related pubchem assays: 1858 (Summary AID.), 1825 (Counterscreen.), 1907 (Confirmation screen.)]; type: functional
[3] = target: Lytic switch protein BZLF1 (Epstein-Barr virus (strain B95-8) (HHV-4) (Human herpesvirus 4), UniProt P03206); test: inhibition of BZLF1 ZTA DNA binding – biochemical, fluorescence polarization, Epstein-Barr virus, 1536-well, counter-screen for EBNA-1 inhibitor project, dose response (AID 2377); design: species or system human gammaherpesvirus 4;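 note: fluorescence polarization of Cy5-labelled ZRE DNA probe bound by purified Zta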
Lytic switch protein BZLF1, sequence (P03206 whole entry): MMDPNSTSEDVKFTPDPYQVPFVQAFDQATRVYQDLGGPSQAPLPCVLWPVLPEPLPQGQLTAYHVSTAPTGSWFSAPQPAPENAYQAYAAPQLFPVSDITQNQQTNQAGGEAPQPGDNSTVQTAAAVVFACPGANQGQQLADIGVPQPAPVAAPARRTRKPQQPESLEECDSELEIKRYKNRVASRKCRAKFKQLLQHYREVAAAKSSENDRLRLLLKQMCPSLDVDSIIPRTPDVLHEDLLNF

[4] = target: Epstein-Barr nuclear antigen 1 (Epstein-Barr virus (strain B95-8) (HHV-4) (Human herpesvirus 4), UniProt P03211); test: inhibition of EBV nuclear antigen 1 DNA binding – biochemical, fluorescence polarization, 1536-well, dose response (AID 2381); design: species or system human gammaherpesvirus 4;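 note: fluorescence polarization of a Cy5 DNA probe bound by EBNA-1 protein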
Epstein-Barr nuclear antigen 1, sequence (P03211 whole entry): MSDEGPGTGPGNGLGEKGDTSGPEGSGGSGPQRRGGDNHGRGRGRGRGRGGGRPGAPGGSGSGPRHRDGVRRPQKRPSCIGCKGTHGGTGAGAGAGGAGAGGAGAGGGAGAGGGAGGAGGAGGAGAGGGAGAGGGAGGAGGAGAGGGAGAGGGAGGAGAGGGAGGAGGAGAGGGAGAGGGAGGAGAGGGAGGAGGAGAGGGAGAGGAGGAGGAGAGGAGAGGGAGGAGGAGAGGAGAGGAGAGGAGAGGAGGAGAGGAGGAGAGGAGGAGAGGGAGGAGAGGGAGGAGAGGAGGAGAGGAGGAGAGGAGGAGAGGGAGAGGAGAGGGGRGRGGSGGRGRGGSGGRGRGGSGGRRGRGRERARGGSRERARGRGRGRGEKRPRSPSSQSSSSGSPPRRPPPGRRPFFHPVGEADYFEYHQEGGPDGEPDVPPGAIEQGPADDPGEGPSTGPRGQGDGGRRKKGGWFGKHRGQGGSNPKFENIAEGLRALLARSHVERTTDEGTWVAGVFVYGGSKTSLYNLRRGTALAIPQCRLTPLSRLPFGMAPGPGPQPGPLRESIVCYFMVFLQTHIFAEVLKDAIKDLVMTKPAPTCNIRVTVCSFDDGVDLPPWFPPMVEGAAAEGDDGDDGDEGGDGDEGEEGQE

[5] = target: Sphingosine 1-phosphate receptor 2 (Homo sapiens, UniProt O95136); test: Dose Response Cell Based Assay for Agonists of the S1P2 Receptor of Purchased Analogues. [Related pubchem assays: 729, 843, 854, 736 ]; type: functional
Sphingosine 1-phosphate receptor 2, sequence (O95136 whole entry): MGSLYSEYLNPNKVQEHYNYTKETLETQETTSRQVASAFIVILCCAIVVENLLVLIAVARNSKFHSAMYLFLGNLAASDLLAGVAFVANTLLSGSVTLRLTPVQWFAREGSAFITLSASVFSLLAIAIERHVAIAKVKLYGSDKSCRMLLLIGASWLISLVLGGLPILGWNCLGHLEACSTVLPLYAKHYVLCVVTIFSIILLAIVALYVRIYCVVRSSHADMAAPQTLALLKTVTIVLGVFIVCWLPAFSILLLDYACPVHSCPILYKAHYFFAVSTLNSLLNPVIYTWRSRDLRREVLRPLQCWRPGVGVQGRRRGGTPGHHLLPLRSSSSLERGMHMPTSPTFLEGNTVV

Streptokinase A = target: T1, Streptokinase A (Streptococcus pyogenes serotype M1, UniProt P10520); test: viability-normalized secreted streptokinase activity reduction – plasminogen activation absorbance, OD405, dose response (AID 1914); type: functional, Streptococcus pyogenes M1 GAS;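 note: secreted streptokinase activity via plasminogen activation per viability signal from cell pellet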
T1 sequence (P10520 whole entry): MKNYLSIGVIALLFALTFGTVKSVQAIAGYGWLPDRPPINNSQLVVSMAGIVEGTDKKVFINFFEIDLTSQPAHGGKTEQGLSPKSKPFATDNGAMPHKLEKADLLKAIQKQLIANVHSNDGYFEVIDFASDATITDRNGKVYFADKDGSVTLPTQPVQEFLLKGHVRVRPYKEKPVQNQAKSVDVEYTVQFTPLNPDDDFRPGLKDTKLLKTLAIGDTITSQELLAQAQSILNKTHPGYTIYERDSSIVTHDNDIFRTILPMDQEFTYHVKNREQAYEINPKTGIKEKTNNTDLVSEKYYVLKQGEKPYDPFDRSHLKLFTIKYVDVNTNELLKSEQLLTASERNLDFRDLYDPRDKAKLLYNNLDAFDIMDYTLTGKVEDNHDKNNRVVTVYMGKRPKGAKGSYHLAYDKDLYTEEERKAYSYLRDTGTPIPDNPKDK

[6] = Luminescence Cell-Based Dose Response HTS to Identify Activators of Luciferase Translation or Activity in H4 […] Cells. [Related pubchem assays: 1829 (Project Summary), 1814 (Primary HTS)]; type: functional
H4 = test: Luminescence Cell-Based Dose Response HTS to Identify Activators of 5'UTR Stem-Loop Driven Prion Protein mRNA Translation in H4 Neuroglioblastoma Cells. [Related pubchem assays: 1829 (Project Summary), 1814 (Primary HTS)]; type: functional; settings: Homo sapiens
[7] = target: T2, Neuropeptide Y receptor type 2 (Homo sapiens, UniProt P49146); test: IC50 for human NPY-Y2 blockade – cell-based, counter-screen for NPY-Y1 antagonist project, dose response (AID 1278); type: functional
T2 sequence (P49146 whole entry): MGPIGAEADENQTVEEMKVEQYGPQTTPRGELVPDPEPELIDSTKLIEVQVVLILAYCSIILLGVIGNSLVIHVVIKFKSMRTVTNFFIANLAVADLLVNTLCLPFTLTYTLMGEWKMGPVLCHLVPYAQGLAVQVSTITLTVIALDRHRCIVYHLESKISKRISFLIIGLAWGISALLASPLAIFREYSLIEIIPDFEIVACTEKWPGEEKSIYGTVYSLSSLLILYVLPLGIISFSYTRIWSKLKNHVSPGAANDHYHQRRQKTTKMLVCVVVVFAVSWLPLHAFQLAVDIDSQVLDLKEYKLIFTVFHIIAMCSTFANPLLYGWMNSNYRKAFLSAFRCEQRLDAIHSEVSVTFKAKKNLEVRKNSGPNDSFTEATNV

Streptococcus = test: GAS UMAA2166 growth inhibition – luminescence, BacTiterGlo, counter-screen for streptokinase expression inhibitor project, dose response (AID 1915); type: functional, organism-based;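 note: potency for reduction of bacterial viability or growth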
[8] = system: Streptococcus sp. 'group A'; test: Streptococcus pyogenes SK(-)GAS viability under kanamycin – luminescence, BacTiterGlo, confirmation, counter-screen for streptokinase expression inhibitor project, dose response (AID 1900); type: functional, organism-based
[9] = target: T3, Neuropeptide Y receptor type 1 (Homo sapiens, UniProt P25929); test: IC50 of human NPY-Y1 blockers – cell-based, dose response (AID 1277); type: functional
T3 sequence (P25929 whole entry): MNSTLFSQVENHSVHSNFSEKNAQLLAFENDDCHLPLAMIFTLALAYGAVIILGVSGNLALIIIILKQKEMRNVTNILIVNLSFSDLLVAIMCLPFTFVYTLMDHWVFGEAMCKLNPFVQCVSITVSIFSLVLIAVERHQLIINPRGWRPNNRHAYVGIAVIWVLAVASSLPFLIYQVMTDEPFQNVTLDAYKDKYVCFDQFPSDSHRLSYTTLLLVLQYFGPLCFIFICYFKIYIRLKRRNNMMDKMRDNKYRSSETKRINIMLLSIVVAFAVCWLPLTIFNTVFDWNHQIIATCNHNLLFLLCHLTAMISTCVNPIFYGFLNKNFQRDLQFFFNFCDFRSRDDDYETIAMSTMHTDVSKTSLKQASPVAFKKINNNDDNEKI

[10] = target: T2, Neuropeptide Y receptor type 2; type: functional, cell-based
[11] = target: T3, Neuropeptide Y receptor type 1; type: functional
Prothrombin = Prothrombin (Homo sapiens, UniProt P00734); test: Thrombin 1536 HTS Dose Response Confirmation. [Related pubchem assays: 1046 (Thrombin 1536 HTS; hits were confirmed in this assay)]; type: functional
[12] = fluconazole-exposed Candida albicans growth modulators – fluorescence, retest, confirmation (AID 2467); type: functional, cell-based
Ephrin type-A receptor 4 = Ephrin type-A receptor 4 (Mus musculus, UniProt Q03137); test: EphA4 ligand-binding antagonists – biochemical, colorimetric, mouse EphA4, primary screen (AID 689); type: functional
[13] = NIH-3T3 fibroblast cytotoxicity, dose response, cytotoxicity control, cell-based, fluorescence, Alamar Blue, secondary assay (AID 2327); type: functional;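 note: NIH-3T3 mouse fibroblasts cultured with fluconazole at 8 µg/mL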
Cytochrome P450 2C9 = Cytochrome P450 2C9 (Homo sapiens, UniProt P11712)
[14] = target: Voltage-gated inwardly rectifying potassium channel KCNH2 (Homo sapiens, UniProt Q12809); test: concentration-dependent hERG rescue from blockers – cell-based, thallium flux, dose response (AID 2121); type: ADME
[15] = Luminescence Cell-Based Dose Response to Identify Activators of Luciferase Translation or Activity in H4-C Neuroglioblastoma Cells. [Related pubchem assays: 1829 (Project Summary), 1814 (Primary HTS)]; type: functional
[16] = Luminescence Cell-Based Dose Confirmation to Identify Activators of 5'UTR Stem-Loop Driven Alpha-Synuclein mRNA Translation in H4 Neuroglioblastoma Cells. [Related pubchem assays: 1829 (Project Summary), 1814 (Primary HTS)]; type: functional
[17] = Luminescence Cell-Based Dose Response to Identify Activators of 5'UTR Stem-Loop Driven Prion Protein mRNA Translation in H4-C Neuroglioblastoma Cells. [Related pubchem assays: 1829 (Project Summary), 1814 (Primary HTS)]; type: functional
[18] = target: T4, Voltage-gated N-type calcium channel alpha-1B subunit/Amyloid beta A4 precursor protein-binding family A member 1 (Homo sapiens, UniProt Q00975+Q02410); type: protein assay
T4 sequence (Q00975 whole entry): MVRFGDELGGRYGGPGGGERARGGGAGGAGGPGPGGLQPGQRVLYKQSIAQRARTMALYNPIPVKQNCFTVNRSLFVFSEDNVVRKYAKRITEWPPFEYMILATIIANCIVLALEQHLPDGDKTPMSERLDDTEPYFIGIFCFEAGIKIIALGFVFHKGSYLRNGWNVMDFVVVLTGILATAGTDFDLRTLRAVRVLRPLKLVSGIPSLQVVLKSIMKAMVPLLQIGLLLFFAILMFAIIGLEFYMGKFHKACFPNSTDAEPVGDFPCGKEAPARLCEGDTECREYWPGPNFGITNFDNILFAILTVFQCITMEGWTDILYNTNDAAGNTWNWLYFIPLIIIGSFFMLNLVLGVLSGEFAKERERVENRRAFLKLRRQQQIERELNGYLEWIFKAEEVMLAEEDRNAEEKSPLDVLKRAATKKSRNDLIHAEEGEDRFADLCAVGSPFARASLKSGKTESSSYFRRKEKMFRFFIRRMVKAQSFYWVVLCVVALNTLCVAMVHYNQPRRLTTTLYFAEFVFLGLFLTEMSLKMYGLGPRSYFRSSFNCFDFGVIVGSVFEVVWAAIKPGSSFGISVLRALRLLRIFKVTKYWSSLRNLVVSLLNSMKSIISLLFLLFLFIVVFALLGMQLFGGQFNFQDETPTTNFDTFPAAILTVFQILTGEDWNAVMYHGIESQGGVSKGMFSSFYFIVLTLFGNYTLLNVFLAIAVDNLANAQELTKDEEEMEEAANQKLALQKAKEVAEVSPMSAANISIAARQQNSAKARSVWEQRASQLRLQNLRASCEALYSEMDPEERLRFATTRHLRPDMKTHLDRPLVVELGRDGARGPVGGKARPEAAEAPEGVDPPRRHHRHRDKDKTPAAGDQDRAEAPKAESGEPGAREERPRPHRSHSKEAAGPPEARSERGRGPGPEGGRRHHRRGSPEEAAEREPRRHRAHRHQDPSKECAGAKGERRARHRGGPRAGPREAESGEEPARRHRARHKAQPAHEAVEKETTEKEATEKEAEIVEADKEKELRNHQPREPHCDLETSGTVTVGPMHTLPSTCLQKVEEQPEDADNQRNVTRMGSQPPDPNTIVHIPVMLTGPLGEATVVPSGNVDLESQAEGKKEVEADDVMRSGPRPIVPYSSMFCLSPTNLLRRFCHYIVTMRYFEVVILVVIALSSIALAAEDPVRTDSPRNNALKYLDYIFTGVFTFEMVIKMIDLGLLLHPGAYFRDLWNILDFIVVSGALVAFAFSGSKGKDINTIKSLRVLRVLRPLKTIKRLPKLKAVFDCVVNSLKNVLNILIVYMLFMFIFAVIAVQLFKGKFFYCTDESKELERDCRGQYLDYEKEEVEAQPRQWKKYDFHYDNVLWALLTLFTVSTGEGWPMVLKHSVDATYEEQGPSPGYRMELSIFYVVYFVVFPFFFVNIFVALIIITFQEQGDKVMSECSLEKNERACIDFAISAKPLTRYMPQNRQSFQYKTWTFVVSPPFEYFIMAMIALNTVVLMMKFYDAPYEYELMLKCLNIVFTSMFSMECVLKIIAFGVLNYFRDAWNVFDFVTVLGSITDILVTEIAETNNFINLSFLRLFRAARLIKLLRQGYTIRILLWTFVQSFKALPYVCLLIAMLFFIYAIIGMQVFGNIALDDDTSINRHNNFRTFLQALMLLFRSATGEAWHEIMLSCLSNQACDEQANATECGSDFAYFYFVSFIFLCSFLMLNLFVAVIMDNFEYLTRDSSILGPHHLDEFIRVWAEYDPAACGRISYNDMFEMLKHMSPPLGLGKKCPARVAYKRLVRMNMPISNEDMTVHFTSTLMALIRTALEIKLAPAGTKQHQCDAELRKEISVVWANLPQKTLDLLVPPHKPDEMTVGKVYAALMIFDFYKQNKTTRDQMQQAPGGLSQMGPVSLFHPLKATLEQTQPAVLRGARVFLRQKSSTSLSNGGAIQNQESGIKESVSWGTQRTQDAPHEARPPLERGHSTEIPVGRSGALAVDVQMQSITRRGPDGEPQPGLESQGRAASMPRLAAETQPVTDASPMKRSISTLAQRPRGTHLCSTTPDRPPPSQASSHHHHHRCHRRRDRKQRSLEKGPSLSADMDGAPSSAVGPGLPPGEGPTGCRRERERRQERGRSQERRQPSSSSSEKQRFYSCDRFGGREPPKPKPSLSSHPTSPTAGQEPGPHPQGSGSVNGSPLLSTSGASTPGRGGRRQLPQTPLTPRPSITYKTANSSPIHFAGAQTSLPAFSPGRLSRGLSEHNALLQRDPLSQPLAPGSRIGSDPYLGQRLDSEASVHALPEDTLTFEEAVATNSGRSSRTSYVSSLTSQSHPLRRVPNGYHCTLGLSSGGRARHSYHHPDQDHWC
T4 sequence (Q02410 whole entry): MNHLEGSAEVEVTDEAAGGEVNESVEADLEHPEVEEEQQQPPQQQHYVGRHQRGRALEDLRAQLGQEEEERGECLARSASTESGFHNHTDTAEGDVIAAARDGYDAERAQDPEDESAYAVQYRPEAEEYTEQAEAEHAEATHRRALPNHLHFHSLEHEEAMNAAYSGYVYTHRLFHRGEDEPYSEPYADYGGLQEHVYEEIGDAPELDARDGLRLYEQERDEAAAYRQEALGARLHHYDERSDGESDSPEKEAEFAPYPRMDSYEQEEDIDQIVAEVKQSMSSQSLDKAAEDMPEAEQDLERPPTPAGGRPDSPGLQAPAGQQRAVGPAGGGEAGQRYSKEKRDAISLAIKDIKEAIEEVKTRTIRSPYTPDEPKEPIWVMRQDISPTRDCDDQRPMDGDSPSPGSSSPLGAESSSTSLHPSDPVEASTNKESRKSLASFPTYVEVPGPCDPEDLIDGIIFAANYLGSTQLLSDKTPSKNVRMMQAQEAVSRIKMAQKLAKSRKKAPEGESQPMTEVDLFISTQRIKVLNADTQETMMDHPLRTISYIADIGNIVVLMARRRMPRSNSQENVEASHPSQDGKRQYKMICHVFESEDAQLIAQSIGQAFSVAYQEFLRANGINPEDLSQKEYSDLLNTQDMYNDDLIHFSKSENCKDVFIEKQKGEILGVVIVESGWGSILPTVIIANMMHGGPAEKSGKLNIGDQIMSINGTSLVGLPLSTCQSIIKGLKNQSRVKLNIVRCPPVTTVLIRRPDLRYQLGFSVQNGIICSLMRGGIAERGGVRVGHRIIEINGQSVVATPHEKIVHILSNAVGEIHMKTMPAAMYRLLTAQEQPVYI

[19] = target: T4, Voltage-gated N-type calcium channel alpha-1B subunit/Amyloid beta A4 precursor protein-binding family A member 1; type: protein assay; remark: listed apart in the source
[20] = Trypanosoma cruzi growth suppression in host cells – NIH3T3 host cells, beta-gal luminescence, confirmation (AID 2044); type: functional, cell-based;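 note: intracellular parasites grown in NIH/3T3 mouse fibroblasts as host cells; luminescent beta-galactosidase reporter signal from transgenic T. cruzi replicating inside host cells; inhibitors lower the luminescence signal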
Nonstructural protein 1 = Nonstructural protein 1 (Influenza A virus, UniProt Q194T2); type: functional, Influenza A virus (A/California/07/2009(H1N1))
cells [21] = type: functional, cell-based
[22] = loss of viability in HepG2 cells – cell-based, CellTiter-Glo, cherry-picked, cytotoxicity control for Shn3 inhibitor project, dose response (AID 624134); type: functional
INS1 = test: INS-1E survival protection against cytokine death – cell-based, luminescence, retest, dose response (AID 449756); type: functional; settings: Rattus norvegicus;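 note: cell death triggered by IL-1 beta plus TNF-alpha plus IFN-gamma mixture; protective hits raise ATP signal compared with cytokine alone wells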
[23] = non-specific 3'UTR reporter inhibition in Clone20-Shn3RL – cell-based, Renilla luciferase, cherry-picked, counter-screen for Shn3 inhibitor project, dose response (AID 624133); type: functional
[24] = reduction of Shn3 3'UTR-driven luciferase in osteoblasts – cell-based, Clone20 osteoblasts, firefly luciferase, cherry-picked, dose response (AID 624132); type: functional;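 note: firefly luciferase luminescence from reporter carrying the Shn3 3'UTR in osteoblasts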
[25] = NIH3T3 cell viability loss – ATP luminescence, mouse fibroblasts, counter-screen, dose response (AID 2010); type: functional, cell-based;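 note: cells exposed to compound for about 90 hours before reading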
cells [26] = type: functional, cell-based; remark: listed apart in the source
[27] = IC50 of Artemis nuclease activity blockers – biochemical, fluorescence intensity, dose response (AID 720701); type: functional;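 note: Artemis endonuclease enzyme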

Estrogen receptor beta, sequence (Q92731 whole entry): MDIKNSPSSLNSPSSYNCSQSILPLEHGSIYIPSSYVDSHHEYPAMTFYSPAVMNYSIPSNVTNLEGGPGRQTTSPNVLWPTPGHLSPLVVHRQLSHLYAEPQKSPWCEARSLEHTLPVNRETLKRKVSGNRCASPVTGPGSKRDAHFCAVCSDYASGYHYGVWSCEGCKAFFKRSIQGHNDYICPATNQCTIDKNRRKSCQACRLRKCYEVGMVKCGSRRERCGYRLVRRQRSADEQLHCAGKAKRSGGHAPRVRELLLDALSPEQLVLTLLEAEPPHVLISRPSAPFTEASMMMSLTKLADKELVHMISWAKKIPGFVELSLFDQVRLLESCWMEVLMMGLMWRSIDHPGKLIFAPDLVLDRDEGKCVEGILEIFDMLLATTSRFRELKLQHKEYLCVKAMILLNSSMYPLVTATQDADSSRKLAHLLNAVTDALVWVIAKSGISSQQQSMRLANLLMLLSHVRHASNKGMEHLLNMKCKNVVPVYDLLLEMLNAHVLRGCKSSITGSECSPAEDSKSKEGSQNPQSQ

## O=S(=O)(c1cccc(-c2nc3ccccc3s2)c1)N1CCOCC1
Estrogen receptor beta
  IC50: > 50 µM (not active)

## CC(=O)O[C@H]1C(=O)[C@@]2(C)C([C@H](OC(=O)c3ccccc3)[C@]3(O)C[C@H](OC(=O)[C@H](O)[C@@H](NC(=O)Cc4ccccc4)c4ccccc4)C(C)=C1C3(C)C)[C@]1(OC(C)=O)CO[C@@H]1C[C@@H]2O (some centres not stated)
[1]
  IC50: > 80 µM (inactive)
[2]
  IC50: 0.396 µM (active)

## CNS(=O)(=O)c1cccc(C(=O)OCC(=O)Nc2ccc(-c3nc4ccc(C)cc4s3)cc2)c1
[3]
  IC50: > 111 µM (not active)
[4]
  IC50: 5.63 µM (active)

## Cc1cc(C(=O)CN2C(=O)C(=O)N(Cc3ccco3)C2=O)c(C)n1Cc1ccccc1
[5]
  EC50: > 30 µM (not active)

## Clc1ccc(-c2csc(Nc3ccccc3)[n+]2Cc2ccco2)c(Cl)c1
Streptokinase A
  EC50: 2.27 µM (active)
[6]
  EC50: > 120 µM (not active)
H4
  EC50: 51.2 µM (active)
[7]
  IC50: > 35 µM (not active)
Streptococcus
  EC50: > 150 µM (not active)
[8]
  EC50: 12.3 µM (active)
[9]
  IC50: > 35 µM (not active)

## Cc1ccccc1/C=C/c1nc2ccccc2c(=O)n1CCc1ccccc1
[10]
  IC50: 5.52 µM (active)
[11]
  IC50: 4.26 µM (active)

## OC1(c2ccccc2)CCN(Cc2ccccc2)C2CCCCC21 (configuration not stated)
[10]
  IC50: 4.38 µM (active)
[11]
  IC50: 10.2 µM (not active)

## Cc1c(Cl)cccc1NC(=O)Cc1ccc([N+](=O)[O-])cc1
Prothrombin
  IC50: > 50 µM (not active)

## Cc1ccc2cc(C=C(C#N)C#N)c(N3CCCCC3)nc2c1
[12]
  EC50: > 38 µM (not active)
Ephrin type-A receptor 4
  IC50: 24.4 µM (active)
[13]
  EC50: 46.4 µM (active)

## COc1ccccc1NC(=S)NC(=O)c1ccc(-c2ccc(Cl)cc2)o1
Cytochrome P450 2C9
  AC50: inconclusive
[14]
  EC50: 0.1 µM (active)

## CC(C)CN(CCC(=O)O)CC(C)C
Estrogen receptor beta
  IC50: > 50 µM (not active)

## Cc1cc(C(=O)CN2C(=O)C(=O)N(Cc3ccccc3)C2=O)c(C)n1Cc1ccco1
[5]
  EC50: > 30 µM (not active)

## C=CCn1c(=S)[nH]c2cc(-c3ccccc3)sc2c1=O
[14]
  EC50: 1.11 µM (active)

## COCc1nc2oc3ccc(C)cc3c(=O)c2cc1C(=O)OC
[15]
  EC50: 0.402 µM (active)
[6]
  EC50: < 0.1 µM (inconclusive)
H4
  EC50: > 120 µM (not active)
[16]
  EC50: 0.282 µM (active)
[17]
  EC50: 0.433 µM (active)

## O=C(Nc1nc2cc3c(cc2s1)OCCO3)c1ccc(N2C(=O)CCC2=O)cc1
[3]
  IC50: 15.1 µM (not active)
[18]
  IC50: > 50 µM (inactive)
[4]
  IC50: 15.6 µM (not active)
[19]
  IC50: 23 µM (active)

## COc1cccc(C(NC(C)=O)c2ccc3cccnc3c2O)c1 (configuration not stated)
[20]
  EC50: 1.07 µM (active)
Nonstructural protein 1
  IC50: 14.3 µM (active)
Cells [21]
  EC50: > 350 µM (not active)
[12]
  EC50: 1.38 µM (active)
[2]
  IC50: 1.48 µM (active)
[22]
  AC50: 2.61 µM (active)
INS1
  AC50: 0.886 µM (active)
[23]
  AC50: 1.04 µM (active)
[24]
  AC50: 1.39 µM (active)
[13]
  EC50: 3.88 µM (inconclusive)
[25]
  EC50: 1.07 µM (active)
Cells [26]
  EC50: 7.47 µM (active)

## CSc1nc(-c2ccco2)nn1C(=O)c1ccco1
Prothrombin
  IC50: 0.22 µM (active)

## COc1cc2c(C#N)c(N3CCN(c4ccccc4OC)CC3)nc(N)c2c(N)n1
Streptokinase A
  EC50: 22.6 µM (active)
Streptococcus
  EC50: > 150 µM (not active)
[8]
  EC50: 4.63 µM (active)
[27]
  IC50: > 20 µM (inactive)
